# Assay results as given in patent US20230210881A1, “NICOTINAMIDE MONONUCLEOTIDE DERIVATIVES FOR THE TREATMENT OF BACTERIAL INFECTIONS” (NUVAMID SA, priority 2020, published 2023).
# Key:
# Escherichia coli = experiment: Non-lethal model of Escherichia coli induced pneumonia, bacterial culture in the spleen; type: in vivo, BALB/c mice; conditions: for bacteria in the spleen: pre-treatment 185 mg/kg
# Protocol: The purpose of this study is to evaluate the effect of pre-treatment, with an NAD precursor, on the spread of bacterial infection to the spleen in a mouse model of non-lethal Escherichia coli (E. coli) induced pneumonia.
# The administration of the compound at 185 mg/kg and the vehicle (physiological buffer) is performed intraperitoneally and/or intratracheally.
# The compound of formula I-A (white powder) is dissolved in the vehicle. The solution is used at room temperature for a maximum of 1 day and freshly prepared for each new experiment.
# Immediately before use, the E. coli culture was washed twice with 0.9% NaCl. After the second wash, the pellet was re-suspended in sterile saline and the dose calibrated by nephelometry.
# Female BALB/c mice (20-24 g) were then inoculated using intratracheal insertion of a gavage needle (24 G) for injection of 75 μL of the bacterial suspension.
# The compound of formula I-A and the vehicle are administered to the animals intraperitoneally and/or intratracheally. The injection of the compound of formula I-A is performed 24 hours prior to the infection with Escherichia coli. Simulated animals are given a physiological buffer by intraperitoneal administration.
# At 24 hours, 48 hours, and 72 hours postoperatively, spleens from sacrificed animals were weighed and homogenized in 1 mL of saline. These solutions were then used for quantitative agar gel cultures during 24 hours of incubation at 37° C. Viable bacterial colony counts are expressed as Log 10 CFU per gram of organ.
# [1] = test system: caecal ligation and puncture (LPC) induced sepsis; experiment: Caecal ligation and puncture (LPC) induced sepsis model; type: in vivo, mice; conditions: for survival rate: compared with the control group; for Number of surviving mice: 185 mg/kg i.p. once daily; for bacterial load in the blood (bacterial DNA 16S by RT-PCR): 24 hours after LPC; for bacterial load in the blood (bacterial DNA 16S by RT-PCR) / clinical score (murine sepsis score): compared to the control group; for clinical score (murine sepsis score): after LPC at 24, 48, 72 and 96 hours; for temperature after LPC: rectal temperature, 24 hours after surgery
# Protocol: The purpose of this study is to evaluate the effect of administration of compounds according to the invention (I-A and I-B) on the survival rate of mice in a caecal ligation and puncture (LPC) induced sepsis model.
# The study consists of creating a sepsis model in mice by caecal ligation and puncture (LPC) and evaluating the impact of compounds I-A and I-B on the development of sepsis for 4 days.
# The test compounds are administered at 185 mg/kg, intraperitoneally, immediately after the LPC procedure, and then once daily at 24, 48, and 72 hours. The remaining mice are euthanized at 96 hours post-LPC. Vehicle (physiological buffer) is used as a control and administered under the same conditions.
# Mice are anesthetized with 3% Vetoflurane. A laparotomy is performed to exteriorize the caecum. For induction of medium grade sepsis, the caecum is ligated between the distal pole and the base of the caecum. A through puncture with a 21-gauge needle is performed. A small amount of excreta is extruded from the mesenteric and antimesenteric penetration holes to ensure patency. The caecum is repositioned over the abdominal cavity. The peritoneum, fascia, abdominal musculature and then the skin are closed by applying simple sutures. The animals are resuscitated by injecting pre-warmed normal saline (37° C.; 5 ml per 100 g body weight) subcutaneously.
# Administration of Compound I-A at 185 mg/kg, Compound I-B at 185 mg/kg and vehicle (physiological buffer) is performed intraperitoneally immediately after LPC surgery and then once daily at 24, 48 and 72 hours post LPC.
# Survival is assessed every 12 hours for the first two days, then once a day until euthanasia.
# Rectal temperature is checked every 2 to 4 hours for the first day, then twice for the second day.
# These two parameters are monitored once a day.
# The clinical score is defined according to the criteria defined in Table 3:
# 24 hours after surgery, mice were anesthetized with Vetoflurane and blood was collected from the retroorbital sinus to quantify the bacterial load. Bacterial DNA (16S) is extracted and quantified by RT-PCR.
# [2] = test system: Pseudomonas aeruginosa PAO1; experiment: Mouse model of respiratory tract infection induced by Pseudomonas aeruginosa PAO1, bacterial load; type: in vivo, mice; conditions: day 5 post infection, I-A 185 mg/kg i.p., ciprofloxacin 2 mg/kg i.p., once a day
# Protocol: The vehicle (physiological buffer) is used as a control and is administered under the same conditions.
# In each group, the bacterial load in the blood and lungs is assessed on day 5 post infection.
# Leukopenia is induced by intraperitoneal injections of cyclophosphamide 4 days and 1 day before infection, with doses of 150 mg/kg and 100 mg/kg, respectively. P. aeruginosa PAO1 was obtained from ATCC. One vial is thawed and diluted in sterile PBS on the day of infection.
# Bacterial load is assessed in blood and lungs on day 5. Quantitative cultures on agar gel are performed during 24 hours of incubation at 37° C. Viable bacterial colony counts are expressed as Log 10 CFU per mL of blood or per gram of organ.
SMILES,"percentage of animals with bacteria in the spleen (Escherichia coli; after 24 hours, compared to the control group)","percentage of positive bacterial culture in the spleen (Escherichia coli; pre-treatment 185 mg/kg 24 hours prior to infection, intraperitoneal administration, compared to untreated mice (control))",bacteria in the spleen (Escherichia coli; 48 h after intraperitoneal administration),bacteria in the spleen (Escherichia coli; 72 h after intratracheal administration),"spread of bacteria from the lungs to the spleen (Escherichia coli; pre-treatment, intraperitoneal and/or intratracheal administration)",survival rate ([1]; 185 mg/kg i.p.),Number of surviving mice ([1]; 24 h after LPC),bacterial load in the blood (bacterial DNA 16S by RT-PCR) [1],Number of surviving mice ([1]; 48 h after LPC),Number of surviving mice ([1]; 72 h after LPC),Number of surviving mice ([1]; 96 h after LPC),clinical score (murine sepsis score) [1],temperature after LPC ([1]; 185 mg/kg i.p.),reduction of blood bacterial load compared to the vehicle group [2],pulmonary bacterial load ([2]; compared with the vehicle group),"weight loss ([1]; after LPC over 24-96 hours, 185 mg/kg i.p.)"
NC(=O)c1ccc[n+]([C@@H]2O[C@H](COP(=O)([O-])O)[C@@H](O)[C@H]2O)c1 [Compound I-A],greatly reduced,reduced the percentage of positive cultures in the spleen,no bacteria were found in the spleen,no bacteria were found in the spleen,prevented the spread of bacteria from the lungs to the spleen,improved,12/12,significantly decreased,11/12,10/12,9/12,very significantly improved,regain their basal temperature,approximately 2 log,antibacterial effect,–
NC(=O)c1ccc[n+]([C@H]2O[C@H](COP(=O)([O-])O)[C@@H](O)[C@H]2O)c1 [Compound I-B],–,–,–,–,–,improved,12/12,significantly decreased,9/12,8/12,6/12,very significantly improved,regain their basal temperature,–,–,the weight loss is less
